These results are taken from patent US6566554B1, “Aminobenzophenones as inhibitors of IL-1β and TNF-α” (Leo Pharmaceutical Products Ltd. a/s (Lovens Kemiske Fabrik …, priority 1999, dated 2003).

What all share (type): cell-based
The subject of experiment [1] is IL-1β secretion. The experiment in a line: Inhibition of IL-1β secretion in LPS stimulated peripheral blood mononuclear cells. The settings on record: PBMC; LPS stimulated human peripheral blood mononuclear cells, 18 hours, ELISA; read-out: The median inhibition concentration (IC50, nM) of IL-1β. Here is the method:
(§1) To study the effect of the compound of the present invention in vitro the inhibition of the IL-1β and TNF-α secretion was measured using the following procedure:
(§2) Cytokine production was measured in the media from lipopolysaccharide (LPS) stimulated peripheral blood mononuclear cells. The mononuclear cells were isolated from human peripheral blood by Lymphoprep® (Nycomed, Norway) fractionation and suspended in RPMI 1640 (growth medium) with foetal calv serum (FCS, 2%), at a concentration of 5×10^5 cells/ml. The cells were incubated in 24-well tissue culture plates in 1 ml aliquots. Test compounds were dissolved in dimethylsulfoxide (DMSO, 10 mM) and were diluted with the medium. Compounds were added to the cells for 30 minutes, then LPS ([…] final concentration) was added. The plates were incubated for 18 hours, and the concentration of IL-1β and TNF-α in the medium was determined by enzyme-linked immunosorbent assays. The median inhibitory concentrations (IC50) of the compounds were calculated.

Experiment [2] has as its system TNF-α secretion. Description: Inhibition of TNF-α secretion in LPS stimulated peripheral blood mononuclear cells. The settings on record: PBMC; LPS stimulated human peripheral blood mononuclear cells, 18 hours, ELISA; read-out: The median inhibition concentration (IC50, nM) of TNF-α. The method, then: as §1, §2
(In an ELISA, binding on a coated surface is turned into a signal by an enzyme label.)

Experiment [3] has as its system Human polymorphonuclear (PMN) granulocytes. The experiment in a line: Inhibition of PMN superoxide secretion (ferricytochrome C reduction, TNF-α primed, fMLP stimulated). The settings on record: fMLP 10^−7 M, read-out: The median inhibition concentration (IC50, nM) of PMN-superoxide. The method, then: The compounds of the present invention also show similar activities in the ability to inhibit PMN (polymorphonuclear) superoxide secretion which is also indicative of potentially useful anti-inflammatory drugs. The compounds were tested using the following procedure. Human polymorphonuclear (PMN) granulocytes were isolated from human blood by dextran sedimentation, Lymphoprep® fractionation, and hypotonic lysis of contaminating erythrocytes. Superoxide anion generation was measured as the superoxide dismutase inhabitable reduction of ferricytochrome C (Madhu, S. B. et al, Inflammation, 16, 241, (1992)). The cells were suspended in Hank's balanced salt solution, and incubated for 10 minutes at 37° C. with test compounds. The cells were primed by the addition of TNF-α (3 ng/ml final concentration) for 10 minutes, and then ferricytochrome C, (final concentration 750 μg/ml), bovine serum albumin (BSA, final concentration 1 mg/ml) and formyl-methionyl-leucyl-phenylalanine (fMLP, final concentration 10^−7 M) were added for 3 minutes. The cells were chilled on ice, and were spun down. The optical densities in the cell-free supernatant was measured in a spectrophotometer. The median inhibitory concentration (IC50) of the compounds was calculated.

The structures appear in SMILES notation.

Take `Cc1ccccc1C(=O)c1ccc(Nc2ccccc2NC(=O)CCC(=O)O)cc1Cl` [Compound 101, N-[2-[3-Chloro-4-(2-methylbenzoyl)-phenylamino]phenyl]-succinamic Acid]: the results for the IC50 in experiment [1], in experiment [2] and in experiment [3] were 200 nM, 25 nM and 63 nM, respectively.

As for `CCCCCCCC(=O)Nc1ccccc1Nc1ccc(C(=O)c2ccccc2C)c(Cl)c1` [Compound 102, 2′-[3-Chloro-4-(2-methylbenzoyl)-phenylamino]octananilide], the values for the IC50 in experiment [1], in experiment [2] and in experiment [3] were 6.3 nM, 6.3 nM and 5 nM, respectively.
